{
  "source": "patent US20030040644A1",
  "about": "“Synthesis of nitroalcohol diastereomers” (Pharm-Eco Laboratories, Inc., priority 1999, published 2003)",
  "assay": "Solubility of the diastereomers in several solvent systems (mobile phases)",
  "assay_type": "physicochemical",
  "method": "In order to have a concentrated sample for loading on the simulated moving bed separation system, a high degree of solubility in the mobile phase to be used for the separation is desirable. Therefore, the solubility of the 1-nitro-3-benzyl-3-(N-ethoxycarbonyl)amino-2-propanol diastereomers in several solvent systems was determined.",
  "note": "Several values for one entry are separate records, joined by “and”; a condition that tells them apart may be missing. Equal values may be shown once.",
  "data": [
    {"smiles": "CCOC(=O)NC(Cc1ccccc1)C(O)C[N+](=O)[O-]", "note": "(single isomer, unassigned) [1-nitro-3-benzyl-3-benzyl-3-(N-ethoxycarbonyl)amino-2-propanol diastereomers, 1-nitro-3-benzyl-3-(N-ethoxycarbonyl)amino-2-propanol]", "values": [
      {"measurement": "% Solubility", "setting": "mobile phase 10% ethyl acetate/90% methylene chloride", "value": 3.8, "unit": "%"},
      {"measurement": "% Solubility", "setting": "mobile phase 40% water/60% methanol", "value": 1.7, "unit": "%"},
      {"measurement": "% Solubility", "setting": "mobile phase 50% heptane/50% THF", "value": 20, "unit": "%"},
      {"measurement": "% Solubility", "setting": "mobile phase 50% heptane/50% ethyl acetate", "value": 3.81, "unit": "%"},
      {"measurement": "% Solubility", "setting": "mobile phase 50% methanol/50% THF", "value": 78, "unit": "%"},
      {"measurement": "% Solubility", "setting": "mobile phase 60% water/40% acetonitrile", "value": 3.29, "unit": "%"},
      {"measurement": "% Solubility", "setting": "mobile phase 70% heptane/30% THF", "value": 4, "unit": "%"},
      {"measurement": "% Solubility", "setting": "mobile phase 70% heptane/30% ethanol", "value": 20, "unit": "%"},
      {"measurement": "% Solubility", "setting": "mobile phase 70% heptane/30% ethyl acetate", "value": "1.11% and 1.09% and 1.31%"},
      {"measurement": "% Solubility", "setting": "mobile phase 70% heptane/30% isopropanol", "value": 0.36, "unit": "%"},
      {"measurement": "% Solubility", "setting": "mobile phase 80% heptane/20% ethanol", "value": "0.31% and 1.86%"},
      {"measurement": "% Solubility", "setting": "mobile phase 80% toluene/20% THF", "value": 6, "unit": "%"},
      {"measurement": "% Solubility", "setting": "mobile phase 100% methanol", "value": 40, "unit": "%"}
    ]}
  ]
}
